In US20240308987A1, “SMALL MOLECULE INHIBITOR AGAINST NASOPHARYNGEAL CARCINOMA, PREPARATION METHOD AND APPLICATION THEREOF” (SHENZHEN BAY LABORATORY, priority 2021, published 2024):

Tested on: C666-1 cells
Experiment: C666-1 Cell Viability Assay (Resazurin cytotoxicity test)
Type: cell-based
Details: Homo sapiens, C6661, EB virus-positive C666-1 cells, 72 hours treatment, 100-0.78 micromole/L, read-out: Inhibitory Rate
Protocol: In order to evaluate the inhibitory effect of the small molecular compound of the present disclosure on EBNA1 at the cellular level, a cytotoxicity test was performed.
As mentioned in the Background of the present disclosure, nasopharyngeal carcinoma is a kind of disease highly associated with latent infection of EB virus. EB virus in latent state only expresses limited proteins to maintain its genome replication, among which EBNA1 protein is an essential functional protein. Studies have confirmed that inhibition of EBNA1 can reduce the proliferation of the corresponding nasopharyngeal carcinoma cells or kill them. Therefore, EB virus-positive nasopharyngeal carcinoma tumor cells (C666-1 cells) are selected for test to verify the effect of the small molecular compound of the present disclosure.
During testing, 100 microliters of different cell lines were inoculated onto a transparent 96-well plate, and 5×10^3 cells were inoculated in each well for C666-1 cells. After the cells were cultured in an incubator under […] at 37° C. for 24 hours, 10 microliters of compound with a concentration ranging from 1 mmol/L to 7.8 micromol/L were added to each well (8 points, double dilution, the final concentration was 100-0.78 micromole/L), and treated in the incubator under carbon dioxide at 37° C. for 72 hours. Cell viability was assessed using the redox indicator Resazurin. After addition of 10 microliters of 600 micromole/liter Resazurin to each well and incubation at 37° C. for 3 hours. Using a Tecan microplate reader, the fluorescence signals were detected at an […]. A software was used to fit the inhibition curve and calculate half-maximal effect concentration (EC50). The selectivity of compound activity was assessed by comparing the EC50 values of EB virus-positive and EB virus-negative cell lines.

Structure (SMILES)	EC50
COC(=O)c1cccc(N2CC(Oc3ccc(COc4cncnc4)cc3)C2)c1-n1cccc1 [Example 14, methyl 3-(3-(4-((pyrimidin-5-yloxy)methyl)phenoxy)azetidin-1-yl)-2-(1H-pyrrol-1-yl) benzoate]	1 to 10 µM
O=C(O)c1cccc(N2CC(Oc3ccc(COc4cncnc4)cc3)C2)c1-n1cccc1 [Example 14a, 3-(3-(4-((pyrimidin-5-yloxy)methyl)phenoxy)azetidin-1-yl)-2-(1H-pyrrol-1-yl) benzoic acid]	1 to 10 µM
O=C(NO)c1cccc(N2CC(Oc3ccc(COc4cncnc4)cc3)C2)c1-n1cccc1 [Example 14b, N-hydroxy-3-(3-(4-((pyrimidin-5-yloxy)methyl)phenoxy)azetidin-1-yl)-2-(1H-pyrrol-1-yl) benzamide]	1 to 10 µM
COC(=O)c1cccc(N2CC(Oc3ccc(COc4cccnc4)c(C)c3)C2)c1-n1cccc1 [Example 15, methyl 3-(3-(3-methyl-4-((pyridin-3-yloxy)methyl)phenoxy)azetidin-1-yl)-2-(1H-pyrrol-1-yl) benzoate]	10 to 50 µM
Cc1cc(OC2CN(c3cccc(C(=O)O)c3-n3cccc3)C2)ccc1COc1cccnc1 [Example 15a, 3-(3-(3-methyl-4-((pyridin-3-yloxy)methyl)phenoxy)azetidin-1-yl)-2-(1H-pyrrol-1-yl) benzoic acid]	10 to 50 µM
COC(=O)c1cccc(N2CC(Oc3ccc(COc4cccnc4)cc3C)C2)c1-n1cccc1 [Example 16, methyl 3-(3-(2-methyl-4-((pyridin-3-yloxy)methyl)phenoxy)azetidin-1-yl)-2-(1H-pyrrol-1-yl) benzoate]	10 to 50 µM
Cc1cc(COc2cccnc2)ccc1OC1CN(c2cccc(C(=O)O)c2-n2cccc2)C1 [Example 16a, 3-(3-(2-methyl-4-((pyridin-3-yloxy)methyl)phenoxy)azetidin-1-yl)-2-(1H-pyrrol-1-yl) benzoic acid]	> 50 µM
COC(=O)c1cccc(N2CC(Oc3ccc(COc4cccnc4)cc3)C2)c1-c1ccccc1 [Example 17, methyl 6-(3-(4-((pyridin-3-yloxy)methyl)phenoxy)azetidin-1-yl)-[1,1′-biphenyl]-2-carboxylate]	1 to 10 µM
O=C(O)c1cccc(N2CC(Oc3ccc(COc4cccnc4)cc3)C2)c1-c1ccccc1 [Example 17a, 6-(3-(4-((pyridin-3-yloxy)methyl)phenoxy)azetidin-1-yl)-[1,1′-biphenyl]-2-carboxylic acid]	1 to 10 µM
O=C(NO)c1cccc(N2CC(Oc3ccc(COc4cccnc4)cc3)C2)c1-c1ccccc1 [Example 17b, N-hydroxy-6-(3-(4-((pyridin-3-yloxy)methyl)phenoxy)azetidin-1-yl)-[1,1′-biphenyl]-2-carboxamide]	1 to 10 µM
COC(=O)c1cccc(N2CC(Oc3ccc(COc4cccnc4)cc3)C2)c1-c1cccc(Cl)c1 [Example 18, methyl 3′-chloro-6-(3-(4-((pyridin-3-yloxy)methyl)phenoxy)azetidin-1-yl)-[1,1′-biphenyl]-2-carboxylate]	1 to 10 µM
COC(=O)c1cccc(N2CC(Oc3ccc(COc4cccnc4)c(Cl)c3)C2)c1-n1cccc1 [Example 19, methyl 3-(3-(3-chloro-4-((pyridin-3-yloxy)methyl)phenoxy)azetidin-1-yl)-2-(1H-pyrrol-1-yl) benzoate]	10 to 50 µM
O=C(O)c1cccc(N2CC(Oc3ccc(COc4cccnc4)c(Cl)c3)C2)c1-n1cccc1 [Example 19a, 3-(3-(3-chloro-4-((pyridin-3-yloxy)methyl)phenoxy)azetidin-1-yl)-2-(1H-pyrrol-1-yl) benzoic acid]	10 to 50 µM
COC(=O)c1cccc(N2CC(Oc3ccc(COc4cccnc4)c(F)c3)C2)c1-n1cccc1 [Example 20, methyl 3-(3-(3-fluoro-4-((pyridin-3-yloxy)methyl)phenoxy)azetidin-1-yl)-2-(1H-pyrrol-1-yl) benzoate]	1 to 10 µM
O=C(O)c1cccc(N2CC(Oc3ccc(COc4cccnc4)c(F)c3)C2)c1-n1cccc1 [Example 20a, 3-(3-(3-fluoro-4-((pyridin-3-yloxy)methyl)phenoxy)azetidin-1-yl)-2-(1H-pyrrol-1-yl) benzoic acid]	10 to 50 µM
